Assay results taken from US6946458B2, “N-thiolated beta-lactams: novel antibacterial agents for methicillin-resistant Staphylococcus aureus” (University of South Florida, priority 1999, dated 2005).
≈ marks a conversion by molar mass, not a printed value. Entries after “also recorded” stand apart in the source; their conditions may differ. Like-named read-outs stand apart in the source and are kept apart here.

Legend:
[1] = system: Staph aureus 525; assay: Kirby-Bauer agar disk diffusion; format: cell-based, Staphylococcus aureus; details: Table 5
[2] = system: MRSA cells; assay: light microscopy after Gram staining; format: cell-based, Staphylococcus aureus; details: for cells Gram-stained purple: Example 5, MRSA cells grown in presence of the substance; for coloration upon Gram staining: Example 1
Excerpt: (§1) In fact, only small isolated colonies of surviving cells can be found, all of which appear perfectly normal in size, shape, smoothness, and clustering behavior. […] Pulse radiolabeling experiments indicate that the lactam of FIG. 1D blocks the bacterial uptake of ^3H-uridine and ^3H-leucine at low (MIC) levels (Lim, D. V. et al. Microbiology, 1977, 33:328; Champney, W. S. and C. G. Tober Antimicrob. Agents and Chemother., 2000, 44:1413).
(FIGS. 14A-14C) S. aureus is a Gram-positive microorganism, and thus reacts with Gram stain to produce a purple coloration due to binding of the stain to the peptidoglycan. 100% of MRSA cells grown either in the absence or presence of the lactam of FIG. 11F take on a purple color when Gram stained (top and center images, next page). In contrast, for MRSA cells treated with penicillin G or vancomycin (cell wall synthesis inhibitors), only about 30% of the cells are Gram-stained purple, with the remainder of the cells appearing pink (bottom image, next page) due to morphologically altered walls. This is strong evidence that the N-methylthio lactams are not affecting late stage events in cell wall biosynthesis.

[3] = system: cultures of S. aureus and MRSA; assay: electron microscopy of cell morphology; format: cell-based, Staphylococcus aureus; details: for cell morphology: Example 1, electron microscopy, high magnification
Excerpt: The structure-bioactivity patterns observed for these N-thiolated lactams are highly atypical for a β-lactam antibiotic. The compounds are lipohilic and devoid of the typical acidic ring functionality required for recognition by the penicillin binding proteins. The implication that the lactams set forth in FIGS. 1A-1I are not acting in the same manner or on the same enzymes as the traditional β-lactam drugs is supported by electron microscopy experiments, which confirm that cell morphology is unaffected by the lactam of FIG. 1D (Greenwood, D. et al. Science, 1969, 163:1076).
as §1
Light microscopy and scanning electron microscopy experiments have enabled us to look for cell wall damage in cultures of S. aureus and MRSA grown in the presence of N-methylthio lactam (FIG. 11F) over a range of different concentrations and cell growth conditions. […] Those cells that survive the treatment appear normal (coccal) and fully mature.

[4] = system: MRSA USF654; assay: Kirby-Bauer agar disk diffusion; format: cell-based, Staphylococcus aureus; parameters: Kirby-Bauer Disc Diffusion Test Results: unit not given here; details: for Kirby-Bauer Disc Diffusion Test Results: Table 5, beta-lactamase producing strain; for zone of growth inhibition, average diameter: Table 1, 6-mm disks, 20 μg test compound, 24 h, triplicate; for zone of inhibition at 20 µg/disc: Staphylococcus aureus, MRSA
In short: (§2)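 Kirby-Bauer disk diffusion on agar with 6-mm air-dried disks carrying 20 μg compound against β-lactamase-producing MRSA clinical isolates. Values are mean inhibition-zone diameters (mm, triplicate) read after 24 h.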

[5] = system: MRSA USF657; assay: Kirby-Bauer agar disk diffusion; format: cell-based, Staphylococcus aureus; parameters: Kirby-Bauer Disc Diffusion Test Results: unit not given here; details: for Kirby-Bauer Disc Diffusion Test Results: Table 5, beta-lactamase producing strain; for zone of growth inhibition, average diameter: Table 1, 6-mm disks, 20 μg test compound, 24 h, triplicate; for zone of inhibition at 20 µg/disc: Staphylococcus aureus, MRSA
In short: as §2

[6] = system: MRSA USF653; assay: Kirby-Bauer agar disk diffusion; format: cell-based, Staphylococcus aureus; parameters: Kirby-Bauer Disc Diffusion Test Results: unit not given here; details: for Kirby-Bauer Disc Diffusion Test Results: Table 5, beta-lactamase producing strain; for zone of growth inhibition, average diameter: Table 1, 6-mm disks, 20 μg test compound, 24 h, triplicate; for zone of inhibition at 20 µg/disc: Staphylococcus aureus, MRSA
In short: as §2

[7] = system: MRSA USF658; assay: Kirby-Bauer agar disk diffusion; format: cell-based, Staphylococcus aureus; parameters: Kirby-Bauer Disc Diffusion Test Results: unit not given here; details: for Kirby-Bauer Disc Diffusion Test Results: Table 5, beta-lactamase producing strain; for zone of growth inhibition, average diameter: Table 1, 6-mm disks, 20 μg test compound, 24 h, triplicate; for zone of inhibition at 20 µg/disc: Staphylococcus aureus, MRSA
In short: as §2

[8] = system: MRSA USF656; assay: Kirby-Bauer agar disk diffusion; format: cell-based, Staphylococcus aureus; parameters: Kirby-Bauer Disc Diffusion Test Results: unit not given here; details: for Kirby-Bauer Disc Diffusion Test Results: Table 5, beta-lactamase producing strain; for zone of growth inhibition, average diameter: Table 1, 6-mm disks, 20 μg test compound, 24 h, triplicate; for zone of inhibition at 20 µg/disc: Staphylococcus aureus, MRSA
In short: as §2

[9] = system: MRSA USF655; assay: Kirby-Bauer agar disk diffusion; format: cell-based, Staphylococcus aureus; parameters: Kirby-Bauer Disc Diffusion Test Results: unit not given here; details: for Kirby-Bauer Disc Diffusion Test Results: Table 5; for zone of growth inhibition, average diameter: Table 1, 6-mm disks, 20 μg test compound, 24 h, triplicate; for zone of inhibition at 20 µg/disc: Staphylococcus aureus, MRSA
In short: as §2

[10] = system: MRSA USF652; assay: Kirby-Bauer agar disk diffusion; format: cell-based, Staphylococcus aureus; parameters: Kirby-Bauer Disc Diffusion Test Results: unit not given here; details: for Kirby-Bauer Disc Diffusion Test Results: Table 5, beta-lactamase producing strain; for zone of growth inhibition, average diameter: Table 1, 6-mm disks, 20 μg test compound, 24 h, triplicate; for zone of inhibition at 20 µg/disc: Staphylococcus aureus, MRSA
In short: as §2

[11] = system: MRSA USF659; assay: Kirby-Bauer agar disk diffusion; format: cell-based, Staphylococcus aureus; parameters: Kirby-Bauer Disc Diffusion Test Results: unit not given here; details: for Kirby-Bauer Disc Diffusion Test Results: Table 5, beta-lactamase producing strain; for zone of growth inhibition, average diameter: Table 1, 6-mm disks, 20 μg test compound, 24 h, triplicate; for zone of inhibition at 20 µg/disc: Staphylococcus aureus, MRSA
In short: as §2

[12] = system: bacterial uptake of ^3H-uridine and ^3H-leucine; assay: pulse radiolabeling experiments; format: cell-based; details: at low (MIC) levels
Excerpt: as §1

[13] = system: Staphylococcus aureus (ATCC 25923); assay: Kirby-Bauer agar disk diffusion; format: cell-based; details: Table 1; 6-mm disks, 20 μg test compound, 24 h, triplicate
Description: (§3) In this study, a selection of N-methylthio-substituted β-lactams are examined for antimicrobial activity by the Kirby-Bauer disk diffusion method on agar plates. A variety of common Gram-positive and Gram-negative bacteria are tested, including clinical isolates of methicillin-resistant Staphylococcus aureus (MRSA).
(§4) Compound susceptibility measurements are obtained from agar disk diffusion experiments using 6-mm air-dried disks impregnated with 20 μg of the test compound. The values correspond to the average diameters in mm (triplicate experiments) for the zone of growth inhibition observed after 24 h. Staphylococcus aureus (ATCC 25923) and β-lactamase-producing strains of methicillin-resistant Staphylococcus aureus (labeled as MRSA USF652-659) are obtained from Lakeland Regional Medical Center, Lakeland, Fla. Staphylococcus epidermidis, Staphylococcus simulans, Staphylococcus simulans, and Microcossus luteus are clinical isolates from University of South Florida Medical Clinic. Nieserria gonnorhoeae (β-lactamase positive) is obtained from the Tampa Branch State Laboratory. PenG is penicillin G (potassium salt). Table 1 provides the zones of growth inhibition that are observed after 24 hours using the lactams of FIGS. 1A-1I (designated A-I, respectively).
(§5) Of particular interest is the ability of these compounds to retain their effectiveness against penicillin-resistant strains of Staphylococcus aureus, a dangerous hospital-borne pathogen which is becoming difficult to treat with conventional antibiotic therapy. The lactams were screened for antibacterial activity by disk diffusion on agar plates, and the resulting zones of bacterial growth inhibition measured (see Table 3; each lactam is designated by Figure number).
(§6) Table 3: Growth inhibition zones obtained from agar disk diffusion experiments using 6-mm air-dried disks impregnated with 20 μg of the test compound. The values correspond to the average diameters in mm for the zone of growth inhibition observed after 24 hours. Staphylococcus aureus and β-lactamase-producing strains of methicillin-resistant Staphylococcus aureus (labeled MRSA USF652-659) are obtained from a clinical testing laboratory at Lakeland Regional Medical Center, Lakeland, Fla.

[14] = system: Staphylococcus epidermidis; assay: Kirby-Bauer agar disk diffusion; format: cell-based; details: Table 1; 6-mm disks, 20 μg test compound, 24 h, triplicate
Description: as §3, §4, §5, §6

[15] = system: Micrococcus luteus; assay: Kirby-Bauer agar disk diffusion; format: cell-based; details: Table 1; 6-mm disks, 20 μg test compound, 24 h, triplicate
Description: as §3, §4, §5, §6

[16] = system: N. gonorrhoeae; assay: Kirby-Bauer agar disk diffusion; format: cell-based, Neisseria gonorrhoeae; details: Table 1; 6-mm disks, 20 μg test compound, 24 h, triplicate; β-lactamase positive
Description: as §3, §4

[17] = system: S. saprophyticus (ATCC 3552); assay: Kirby-Bauer agar disk diffusion; format: cell-based, Staphylococcus saprophyticus; details: Table 1; 6-mm disks, 20 μg test compound, 24 h, triplicate
Description: as §3, §4, §5, §6

[18] = system: Staphylococcus aureus; assay: MIC by agar dilution; format: cell-based
Excerpt: (§7) However, the N-alkylthio substituent is required, since reduction to the N—H analogue completely destroys the biological activity.

[19] = system: MRSA strains; assay: MIC by agar dilution; format: cell-based, Staphylococcus aureus
Excerpt: as §7

[20] = system: S. simulans (ATCC 11631); assay: Kirby-Bauer agar disk diffusion; format: cell-based, Staphylococcus simulans; details: Table 1; 6-mm disks, 20 μg test compound, 24 h, triplicate
Description: as §3, §4, §5, §6

[21] = read-out: The Zone of Inhibition

Row | SMILES | cells Gram-stained purple [2] | Kirby-Bauer Disc Diffusion Test Results [4] | Kirby-Bauer Disc Diffusion Test Results [5] | Kirby-Bauer Disc Diffusion Test Results [6] | Kirby-Bauer Disc Diffusion Test Results [7] | Kirby-Bauer Disc Diffusion Test Results [8] | Kirby-Bauer Disc Diffusion Test Results [9] | Kirby-Bauer Disc Diffusion Test Results [10] | Kirby-Bauer Disc Diffusion Test Results [11] | coloration upon Gram staining [2] | zone of growth inhibition, average diameter [13] | zone of growth inhibition, average diameter [14] | zone of growth inhibition, average diameter [15] | zone of growth inhibition, average diameter [16] | zone of growth inhibition, average diameter [17] | zone of growth inhibition, average diameter [20] | zone of growth inhibition, average diameter [4] | zone of growth inhibition, average diameter [5] | zone of growth inhibition, average diameter [6] | zone of growth inhibition, average diameter [7] | other results
1 | COC1C(=O)N(SC)C1c1ccccc1Cl (racemic) [FIG. 11F] | 100% | 26 | 28 | 30 | 28 | 26 | 26 | 30 | 27 |  |  |  |  |  |  |  |  |  |  |  | Kirby-Bauer Disc Diffusion Test Results [1]: 26; cell counts ([3]; Example 5, cultures grown in the presence of the lactam): Highly reduced cell counts; alterations in the shapes or sizes of remaining cells ([3]; Example 5, light and scanning electron microscopy, range of concentrations and growth conditions): in no cases have we found alterations in the shapes or sizes
2 | COC1C(=O)N(SC)C1c1ccccc1Cl (racemic) [Lactam D] |  |  |  |  |  |  |  |  |  | uniform purple coloration | 26 mm | 29 mm | 24 mm | 19 mm | 20 mm | 16 mm | 26 mm | 28 mm | 30 mm | 27 mm | bacterial uptake of ^3H-leucine [12]: blocks; bacterial uptake of ^3H-uridine [12]: blocks; cell morphology ([3]; listed as FIG. 1D): unaffected; also recorded: no visible damage or morphological deformities; Minimum inhibitory concentration (MIC) [18]: 15 µg/mL (≈ 58.2 µM); Minimum inhibitory concentration (MIC) [19]: 5 to 10 µg/mL; zone of growth inhibition, average diameter [8]: 28 mm; zone of growth inhibition, average diameter [9]: 26 mm; zone of growth inhibition, average diameter [10]: 30 mm; zone of growth inhibition, average diameter [11]: 24 mm
3 | COC1C(=O)N(SC)C1c1cccs1 (racemic) [Lactam I] |  |  |  |  |  |  |  |  |  |  | 27 mm | 28 mm | 15 mm | 11 mm | 20 mm | 0 mm | 27 mm | 26 mm | 28 mm | 26 mm | zone of growth inhibition, average diameter [8]: 28 mm; zone of growth inhibition, average diameter [9]: 29 mm; zone of growth inhibition, average diameter [10]: 28 mm; zone of growth inhibition, average diameter [11]: 24 mm
4 | CN[C@H](CC(C)C)C(=O)N[C@H]1C(=O)N[C@@H](CC(N)=O)C(=O)N[C@H]2C(=O)N[C@H]3C(=O)N[C@H](C(=O)N[C@H](C(=O)O)c4cc(O)cc(O)c4-c4cc3ccc4O)[C@H](O)c3ccc(c(Cl)c3)Oc3cc2cc(c3O[C@@H]2O[C@H](CO)[C@@H](O)[C@H](O)[C@H]2O[C@H]2C[C@](C)(N)[C@H](O)[C@H](C)O2)Oc2ccc(cc2Cl)[C@H]1O [Vancomycin, reference compound] | about 30% | 19 | 18 | 18 | 18 | 21 | 19 | 19 | 18 | pink coloration |  |  |  |  |  |  |  |  |  |  | cell morphology [3]: wrinkled, deformed, or even sheared; zone of inhibition at 20 µg/disc [4, 21]: 20 mm; zone of inhibition at 20 µg/disc ([4]; read-out: Zones of Inhibition): 19 mm; zone of inhibition at 20 µg/disc [5, 21]: 21 mm; zone of inhibition at 20 µg/disc ([5]; read-out: Zones of Inhibition): 18 mm; zone of inhibition at 20 µg/disc [6, 21]: 20 mm; zone of inhibition at 20 µg/disc ([6]; read-out: Zones of Inhibition): 18 mm; zone of inhibition at 20 µg/disc [7, 21]: 20 mm; zone of inhibition at 20 µg/disc ([7]; read-out: Zones of Inhibition): 18 mm; zone of inhibition at 20 µg/disc [8, 21]: 20 mm; zone of inhibition at 20 µg/disc ([8]; read-out: Zones of Inhibition): 21 mm; zone of inhibition at 20 µg/disc [9, 21]: 19 mm; zone of inhibition at 20 µg/disc ([9]; read-out: Zones of Inhibition): 19 mm; zone of inhibition at 20 µg/disc [10, 21]: 23 mm; zone of inhibition at 20 µg/disc ([10]; read-out: Zones of Inhibition): 19 mm; zone of inhibition at 20 µg/disc [11, 21]: 20 mm; zone of inhibition at 20 µg/disc ([11]; read-out: Zones of Inhibition): 18 mm
